Structures can show the parent of a compound that is named as a salt.
Assays:
[1] = test system: Capan-1 pancreatic adenocarcinoma cells; assay: Antiproliferative activity, Capan-1 cells; assay type: cell-based, human; settings: Capan-1, 72 h incubation
Method: (§1) All prepared imidazo[4,5-b]pyridines were tested for their antiproliferative activity against the following cancer cell lines: LN-229—glioblastoma, Capan-1—pancreatic adenocarcinoma, HCT-116—colorectal carcinoma, NCI-H460—lung carcinoma, DND-41—acute lymphoblastic leukemia, HL-60—acute myeloid leukemia, K-562—chronic myeloid leukemia, and Z-138—non-Hodgkin lymphoma cancer cells. An overview of the results is presented in Table 2 as IC50 values (50% inhibitory concentration). An established antitumor drug, etoposide (ETO), was included for comparison.
(§2) For proliferation assays, the human cancer cell lines used in this manuscript, namely Capan-1, HCT-116, NCI-H460, LN-229, HL-60, K-562, and Z-138, were acquired from the American Type Culture Collection (ATCC, Manassas, VA, USA), while the DND-41 cell line was purchased from the Deutsche Sammlung von Mikroorganismen und Zellkulturen (DSMZ Leibniz-Institut, Braunschweig, Germany). Culture media were purchased from Gibco (Gibco Life Technologies, Merelbeke, Belgium) and supplemented with 10% fetal bovine serum (HyClone, Cytiva, Marlborough, MA, USA). Adherent cell lines LN-229, HCT-116, NCI-H460, and Capan-1 cells were seeded in 384-well tissue culture plates (Greiner, Kremsmünster, Austria) at a density between 500 and 1500 cells per well (500 cells per well for Capan-1, 1000 cells per well for LN-229 and HCT-116, and 1500 cells per well for NCI-H460). The cells were treated with seven different concentrations of the test compounds in a 5-fold dilution series ranging from 100 to 0.006 µM after overnight incubation. Suspension cell lines HL-60, K-562, Z-138, and DND-41 were seeded at densities ranging from 2500 to 5500 cells per well (2500 cells per well for HL-60, K-562, and Z-138, and 5500 cells per well for DND-41) in 384-well culture plates containing the test compounds at the same concentration points. All conditions were incubated for 72 h before measuring the cell viability by the CellTiter 96® AQueous Non-Radioactive Cell Proliferation Assay (Promega, Madison, WA, USA) according to the manufacturer’s instructions. After 3 h, absorbance of all conditions was measured at 490 nm using a SpectraMax Plus 384 (Molecular Devices, San Jose, CA, USA), and the OD values were used to calculate the 50% inhibitory concentration (IC50). Compounds were tested in two independent experiments.

[2] = test system: HCT-116 colorectal carcinoma cells; assay: Antiproliferative activity, HCT-116 cells; assay type: cell-based, human; settings: HCT-116, 72 h incubation
Method: as §1, §2

[3] = test system: LN-229 glioblastoma cells; assay: Antiproliferative activity, LN-229 cells; assay type: cell-based, human; settings: LN-229, 72 h incubation
Method: as §1, §2

[4] = test system: NCI-H460 lung carcinoma cells; assay: Antiproliferative activity, NCI-H460 cells; assay type: cell-based, human; settings: NCI-H460, 72 h incubation
Method: as §1, §2

[5] = test system: DND-41 acute lymphoblastic leukemia cells; assay: Antiproliferative activity, DND-41 cells; assay type: cell-based, human; settings: DND-41, 72 h incubation
Method: as §1, §2

[6] = test system: HL-60 acute myeloid leukemia cells; assay: Antiproliferative activity, HL-60 cells; assay type: cell-based, human; settings: HL-60, 72 h incubation
Method: as §1, §2

[7] = test system: K-562 chronic myeloid leukemia cells; assay: Antiproliferative activity, K-562 cells; assay type: cell-based, human; settings: K-562, 72 h incubation
Method: as §1, §2

[8] = test system: Z-138 non-Hodgkin lymphoma cells; assay: Antiproliferative activity, Z-138 cells; assay type: cell-based, human; settings: Z-138, 72 h incubation
Method: as §1, §2

[9] = test system: respiratory syncytial virus (RSV) A; assay: Antiviral CPE assay, RSV in Hep-2; assay type: cell-based; settings: human respiratory syncytial virus; Hep-2 host cells
yellow fever virus (YFV) = assay: microbe, parasite or virus in culture; assay type: cell-based; settings: Yellow fever virus, Vero C1008, read-out: Antiviral Activity (EC50) YFV VeroE6
Zika virus (ZIKV) = assay: Antiviral CPE assay, ZIKV in VeroE6; assay type: cell-based; settings: Zika virus, Vero C1008; VeroE6 host cells
Sindbis virus (SINDV) = assay: Antiviral CPE assay, SINDV in VeroE6; assay type: cell-based; settings: Sindbis virus, Vero C1008; VeroE6 host cells
[10] = test system: Semliki Forest virus (SFV); assay: Antiviral CPE assay, SFV in VeroE6; assay type: cell-based; settings: Semliki Forest virus, Vero C1008; VeroE6 host cells
in vitro [11] = settings: African green monkey
[12] = test system: influenza A/H1N1 (A/Ned/378/05); assay: Antiviral CPE assay, influenza A/H1N1 in MDCK; assay type: cell-based; settings: Influenza A virus, MDCK host cells
[13] = test system: influenza A/H3N2 (A/HK/7/87); assay: Antiviral CPE assay, influenza A/H3N2 in MDCK; assay type: cell-based; settings: Influenza A virus, MDCK host cells
[14] = test system: influenza B (B/Ned/537/05); assay: Antiviral CPE assay, influenza B in MDCK; assay type: cell-based; settings: Influenza B virus; MDCK host cells
in vitro [15] = settings: dog
[16] = test system: human coronavirus HCoV-229E; assay: organism not typed; assay type: cell-based, human coronavirus 229E; settings: HEL 299 host cells; read-out: Antiviral Activity (EC50) HCoV 229E HEL 299
[17] = test system: human coronavirus HCoV-OC43; assay: Antiviral CPE assay, HCoV-OC43 in HEL 299; assay type: cell-based; settings: Betacoronavirus 1, OC43; HEL 299 host cells
[18] = test system: human coronavirus HCoV-NL63; assay: Antiviral CPE assay, HCoV-NL63 in Hep3B; assay type: cell-based; settings: Hep3B host cells
[19] = test system: herpes simplex virus-1 (HSV-1 KOS); assay: Antiviral CPE assay, HSV-1 in HEL 299; assay type: cell-based; settings: Human alphaherpesvirus 1; HEL 299 host cells

SMILES	IC50 ([1]; Homo sapiens, CAPAN-1, 72 h) [µM]	IC50 ([2]; Homo sapiens, HCT-116, 72 h) [µM]	IC50 ([3]; Homo sapiens, LN-229, 72 h) [µM]	IC50 ([4]; Homo sapiens, NCI-H460, 72 h) [µM]	IC50 ([5]; Homo sapiens, DND41, 72 h) [µM]	IC50 ([6]; Homo sapiens, HL-60, 72 h) [µM]	IC50 ([7]; Homo sapiens, K562, 72 h) [µM]	IC50 ([8]; Homo sapiens, Z-138, 72 h) [µM]	also measured
c1ccc(-c2cnc3[nH]c(-c4ccccc4)nc3c2)cc1 [Compound 12, 2.6-diphenyl-3H-imidazo[4,5-b]pyridine]	35.3	> 100	> 100	> 100	> 100	52.3	> 100	30.1	–
COc1ccc(-c2cnc3c(c2)nc(-c2ccccc2)n3C)cc1 [Compound 20, 6-(4-methoxyphenyl)-3-methyl-2-phenyl-3H-imidazo [4,5-b]pyridine]	> 100	> 100	> 100	> 100	> 100	62.5	> 100	86	–
COc1cc([C@@H]2c3cc4c(cc3[C@@H](O[C@@H]3O[C@@H]5CO[C@@H](C)O[C@H]5[C@H](O)[C@H]3O)[C@H]3COC(=O)[C@H]23)OCO4)cc(OC)c1O [ETO, etoposide, reference compound]	0.1	2.55	1.37	4.6	0.6	0.37	2.35	0.05	–
COc1c(C)c2c(c(O)c1C/C=C(\C)CCC(=O)O)C(=O)OC2 [Mycoph. acid, mycophenolic acid]	–	–	–	–	–	–	–	–	EC50 [9]: 0.8 µM; EC50 (yellow fever virus (YFV)): 0.6 µM; EC50 (Zika virus (ZIKV)): 25.2 µM; EC50 (Sindbis virus (SINDV)): > 100 µM; EC50 [10]: > 100 µM; CC50 (in vitro [11]): > 100 µM
Cn1c(-c2ccccc2)nc2cc(-c3ccc(N)cc3)cnc21 [Compound 25, 4-(3-methyl-2-phenyl-3H-imidazo [4,5-b]pyridin-6-yl)aniline hydrochloride]	–	–	–	–	–	–	–	–	IC50 [1]: 67.3 µM; IC50 [2]: 56.2 µM; IC50 [3]: 59.1 µM; IC50 [4]: > 100 µM; IC50 [5]: > 100 µM; IC50 [6]: 23.7 µM; IC50 [7]: 39 µM; IC50 [8]: 25.5 µM
Nc1ccc(-c2cnc3[nH]c(-c4ccccc4)nc3c2)cc1 [Compound 18, 4-(2-phenyl-3H-imidazo [4,5-b]pyridin-6-yl)aniline hydrochloride]	–	–	–	–	–	–	–	–	IC50 [1]: 7.29 µM; IC50 [2]: > 100 µM; IC50 [3]: 63.6 µM; IC50 [4]: > 100 µM; IC50 [5]: 70.9 µM; IC50 [6]: 46.1 µM; IC50 [7]: 84.7 µM; IC50 [8]: 34.8 µM
Cn1c(-c2ccccc2)nc2cc(-c3ccc([N+](=O)[O-])cc3)cnc21 [Compound 23, 3-methyl-6-(4-nitrophenyl)-2-phenyl-3H-imidazo [4,5-b]pyridine]	> 100	> 100	> 100	> 100	> 100	89.9	> 100	72.9	–
Cn1c(-c2ccccc2)nc2cc(-c3ccc(C#N)cc3)cnc21 [Compound 21, 4-(3-methyl-2-phenyl-3H-imidazo [4,5-b]pyridin-6-yl)benzonitrile]	> 100	> 100	> 100	> 100	> 100	83.1	> 100	62.8	–
O=[N+]([O-])c1ccc(-c2cnc3[nH]c(-c4ccccc4)nc3c2)cc1 [Compound 16, 6-(4-nitrophenyl)-2-phenyl-3H-imidazo[4,5-b]pyridine]	> 100	> 100	> 100	> 100	> 100	79	> 100	65.2	–
CC(N)C12CC3CC(CC(C3)C1)C2 (stereo not shown) [Rimantadin, rimantadine]	–	–	–	–	–	–	–	–	EC50 [12]: 0.08 µM; EC50 [13]: 0.06 µM; EC50 [14]: > 100 µM; CC50 (in vitro [15]): > 100 µM
Cn1c(-c2ccccc2)nc2cc(-c3ccc(N)cc3)cnc21 [Compound 24, 4-(3-methyl-2-phenyl-3H-imidazo [4,5-b]pyridin-6-yl)aniline]	63	> 100	55.8	81.6	78.5	36.2	62.2	–	IC50 [8]: 54.4 µM
CC(=O)N[C@H]1[C@H]([C@H](O)[C@H](O)CO)OC(C(=O)O)=C[C@@H]1N=C(N)N [Zanamivir, zanamivir]	–	–	–	–	–	–	–	–	EC50 [12]: 0.3 µM; EC50 [13]: 68.1 µM; EC50 [14]: 0.5 µM; CC50 (in vitro [15]): > 100 µM
Nc1ccc(-c2cnc3[nH]c(-c4ccccc4)nc3c2)cc1 [Compound 17, 4-(2-phenyl-3H-imidazo [4,5-b]pyridin-6-yl)aniline]	–	> 100	73	> 100	76.4	41.5	83.2	40.9	IC50 [1]: 26.6 µM
CCN(CC)CCCC(C)Nc1ccnc2cc(Cl)ccc12 (stereo not shown) [Chloroquine, chloroquine]	–	–	–	–	–	–	–	–	EC50 (yellow fever virus (YFV)): > 100 µM; EC50 (Zika virus (ZIKV)): 13.4 µM; EC50 (Sindbis virus (SINDV)): 8 µM; EC50 [10]: > 100 µM; CC50 (in vitro [11]): 55.8 µM
COc1ccc(-c2cnc3[nH]c(-c4ccccc4)nc3c2)cc1 [Compound 14, 6-(4-methoxyphenyl)-2-phenyl-3H-imidazo [4,5-b]pyridine]	> 100	> 100	> 100	> 100	> 100	69.4	> 100	> 100	–
NC(=O)c1ncn([C@@H]2O[C@H](CO)[C@@H](O)[C@H]2O)n1 [Ribavirin, ribavirin]	–	–	–	–	–	–	–	–	EC50 [16]: 83.3 µM; EC50 [17]: 97.6 µM; EC50 [18]: 45.8 µM; EC50 [12]: 6.6 µM; EC50 [13]: 12.3 µM; EC50 [14]: 5.2 µM; EC50 [9]: 35.7 µM; EC50 [19]: 217 µM; EC50 (yellow fever virus (YFV)): 235 µM; CC50 (in vitro [15]): > 250 µM; CC50 (in vitro [11]): > 250 µM

Reference: article PMC10608878, “Synthesis and Antiproliferative Activity of 2,6-Disubstituted Imidazo[4,5-b]pyridines Prepared by Suzuki Cross Coupling” (Molecules, 2023)
